The nature of data set [1]: Plasma pharmacokinetics of gemcitabine and dFdU without and with alisertib, non-compartmental analysis. Conditions: for Percentage extrapolated AUC0->inf, Mean / Cmax / AUC(0-inf) / AUC(0-t): plasma, gemcitabine 1000 mg/m^2 IV; for Cmax / AUC(0-inf) / AUC(0-t): human, iv; for AUC(0-inf): read-out: AUC0->inf, Mean (converted); for AUC(0-t): read-out: AUC0->last, Mean (converted); for Effect of co-administered alisertib on NCA PK parameters (day 1 vs day 8): paired t test, P > 0.05. The class given is in vivo, human. As for the experimental part: (§1) Pharmacokinetic sampling was performed on the expanded cohort of subjects with pancreatic cancer treated at the RP2D. Alisertib was not administered on cycle 1, day 1 to enable gemcitabine pharmacokinetic sampling on day 1 and day 2 of cycle 1 in the absence of co-administered alisertib. This served as the reference baseline for comparison to gemcitabine pharmacokinetics when co-administered with alisertib on day 8 of cycle 1. On cycle 1 day 8, alisertib was administered within 10 min of the start of the gemcitabine infusion, and the second (evening) dose of alisertib was not administered to allow for gemcitabine measurement at the 24 h timepoint. Both the parent drug (gemcitabine, dFdC) and the metabolite (dFdU) were measured to evaluate changes in gemcitabine metabolism related to alisertib administration. Pharmacokinetic blood samples were collected with dipotassium ethylenediaminetetraacetic acid (K2EDTA) as the anticoagulant before treatment, immediately after gemcitabine infusion, and at additional pre-specified post-infusion timepoints. Actual timepoints were recorded for PK parameter evaluation. Measurement of plasma gemcitabine, dFdU, and alisertib concentrations are described in the Supplementary Methods.
(§2) Gemcitabine, dFdU and alisertib PK parameters were estimated using non-compartmental analysis (NCA) with Certara Phoenix WinNonlin 8.0 (Princeton, NJ), including mean peak concentration (Cmax) and exposure (Area Under the Curve, AUC). The AUC parameters were estimated using the linear-up-log-down trapezoidal rule. Tests of significance between day 1 and day 8 PK parameters were performed using paired t-tests with GraphPad Prism 6.07 (San Diego, CA).

A short description of data set [2]: Treatment exposures, delays and dose reductions. The data set is classed as in vivo, human. The source says: To proceed to the next cycle, lab parameters included ANC ≥ 1500/mm^3 and platelet count ≥ 100,000/mm^3, and all other toxicity considered by the investigator to be related to therapy with alisertib or gemcitabine must have resolved to grade ≤ 1 or to the subject’s baseline values. […] Thereafter, the subject was re-evaluated to determine continuation eligibility. Dose modification (Table S1B, 1C) was required for cycle initiations delayed > 1 week due to incomplete recovery from treatment-related toxicity.
Median number of cycles per subject was 3 (range 1–13), and median duration of treatment was 2.84 months (range 0.36–13.22). Similar median duration of treatment and cycles delivered were observed between the dose levels (Table S2). Proportion of planned dose received, defined as total dose received divided by total planned dose according to the dose level for alisertib and 1000 mg/m^2 for gemcitabine, was calculated according to each subject (Table S3) and each cycle (Fig. 1).

Data set [3] has as its system small cell lung cancer. Also on record: method as in PMID 31655296. Particulars: cited from earlier work.
Data set [4] concerns breast/ovarian cancer. More on the design: method as in PMID 30347019. Conditions: cited from earlier work.
Details of data set [5]: method as in PMID 28852909. Conditions: published literature; cited from earlier work.
Data set [6] deals with selected CYPs. More on the design: method as in PMID 31911485. Particulars: in vitro; cited from earlier work.
For data set [7] the following is noted: human, in vivo, 28 days. The protocol:
This was an open-label phase I clinical trial with two-phase design including a dose escalation and an expansion phase in pancreatic cancer. In the dose escalation phase, a standard 3 + 3 design was used to determine the maximum tolerated dose (MTD) of alisertib in combination with gemcitabine. Alisertib was administered orally twice daily (BID) on days 1–3, 8–10, and 15–17 of a 28-day treatment cycle. Gemcitabine was given concurrently at standard dosing of 1000 mg/m^2 intravenously on days 1, 8, 15. A starting dose of alisertib 20 mg BID was used in the dose escalation phase and was escalated in cohorts of at least three evaluable subjects at 30 mg BID, 40 mg BID, and 50 mg BID until MTD or the highest feasible dose level (Table S1). The dose of 50 mg BID was the highest dose allowable and was previously reported as the recommended phase II dose (RP2D) for alisertib monotherapy. In the expansion phase, subjects received the MTD or RP2D following the same cycle schedule. Dose adjustments were allowed for both drugs (Table S1B, 1C).
The MTD was defined as the highest dose tested in which fewer than 33% of subjects experienced DLT attributable to the study drugs, when at least six subjects were treated at that dose and evaluable for toxicity.
DLT was defined as any related (possibly, probably, or definitely) grade 3 non-hematologic toxicity or any attributable grade 4 toxicity. […]

Data set [8] deals with multiple solid organ malignancies. More on the design: method as in PMID 25728526. Conditions: cited from earlier work.
The test system of data set [9] is Aurora Kinase A (AKA) compared to Aurora Kinase B. More on the design: method as in PMID 20382844, PMID 21556291. Conditions: cited from earlier work.
Details of data set [10]: method as in PMID 22753585, PMID 24879333, PMID 25302940. Particulars: twice daily for 7 days in a 21-day cycle; cited from earlier work.
A short description of data set [11]: Plasma pharmacokinetics of alisertib, non-compartmental analysis. The data set is classed as in vivo, human. The protocol:
as §1, §2

[12] abbreviates: 1000 mg/m2, Day 1 (without alisertib), N 5.
[13] abbreviates: 1000 mg/m2, Day 8 (with alisertib), N 4.
Where [14] appears, read: monotherapy trial of solid tumors.

Each structure is given as a SMILES string. Entries after “also recorded” stand apart in the source; their conditions may differ. Read-outs that look alike come from different tables or passages of the source. Where only a bound is given, the exact number is not on record here.

We go through 4 molecules from PMC9402746, “A phase I dose escalation, dose expansion and pharmacokinetic trial of gemcitabine and alisertib in advanced solid tumors and pancreatic cancer” (Cancer Chemotherapy and Pharmacology, 2022).

A word on the Cmax: it is the highest concentration seen after dosing. Consider `Nc1ccn([C@@H]2O[C@H](CO)[C@@H](O)C2(F)F)c(=O)n1` [gemcitabine], for which the “Percentage extrapolated AUC0->inf, Mean” value in [1] (Day 1 (without alisertib), N 5) is on record as 0.14%. The “Percentage extrapolated AUC0->inf, Mean” value in data set [1] (Day 8 (with alisertib), N 4) was 0.32%. In data set [1] (setting [12]), the Cmax stood at 7420 ng/mL, the AUC(0-inf) was 3600 ng·h/mL and the AUC(0-t) was 3600 ng·h/mL. In data set [1] (setting [13]), the highest concentration (Cmax) is 6240 ng/mL, the AUC(0-inf) is 3240 ng·h/mL and the AUC(0-t) is 3230 ng·h/mL. Moreover, in data set [1], the “Effect of co-administered alisertib on NCA PK parameters (day 1 vs day 8)” value is “No significant changes; also recorded: not significantly affected”. In data set [2] (of 26 subjects), the “Subjects who required dose delays” value is given as 16 subjects, the “Subjects who required dose omission” value is reported as 14 subjects and the “Subjects with dose reductions” value is 5 subjects. Moreover, in [2] (of 94 cycles delivered), the “Cycles given at a reduced dose” value is listed as 10 cycles, the “Cycles with delayed doses” value worked out at 43 cycles and the “Cycles with dose omissions” value came to 17 cycles.
For the molecule `O=c1ccn([C@@H]2O[C@H](CO)[C@@H](O)C2(F)F)c(=O)[nH]1` [dFdU, 2′, 2′-difluorodeoxyuridine], in [1] (Day 1 (without alisertib), N 5), the “Percentage extrapolated AUC0->inf, Mean” value was 18.13%. The “Percentage extrapolated AUC0->inf, Mean” value in [1] (Day 8 (with alisertib), N 4) is recorded as 15.73%. Moreover, in [1] (setting [12]), the Cmax stood at 67900 ng/mL, the AUC(0-inf) is 412000 ng·h/mL and the AUC(0-t) is 363000 ng·h/mL. Besides, in data set [1] (setting [13]), the peak level (Cmax) was 73800 ng/mL, the AUC(0-inf) was 363000 ng·h/mL and the AUC(0-t) was 343000 ng·h/mL. Further, the “Effect of co-administered alisertib on NCA PK parameters (day 1 vs day 8)” value in data set [1] was “No significant changes; also recorded: not significantly affected”.
Regarding `CC(=O)O[C@H]1C(=O)[C@@]2(C)[C@H]([C@H](OC(=O)c3ccccc3)[C@]3(O)C[C@H](OC(=O)[C@H](O)[C@@H](NC(=O)c4ccccc4)c4ccccc4)C(C)=C1C3(C)C)[C@]1(OC(C)=O)CO[C@@H]1C[C@@H]2O` [paclitaxel], the mPFS in data set [3] (89 subjects in each arm) is on record as 2.17 months; in data set [4] (breast/ovarian subjects), 4.7 months. Besides, the Response rate in [3] is 18%; in data set [4] (breast/ovarian subjects, p = 0.38), 52%.
The term Tmax denotes the time from dosing to the highest level. Take `COc1cc(Nc2ncc3c(n2)-c2ccc(Cl)cc2C(c2c(F)cccc2OC)=NC3)ccc1C(=O)O` [alisertib]: the Tmax in data set [5] is 3 to 4 h; in [11] (human, plasma, oral, Subject 24, day 8, unexpectedly long, read-out: Tmax), 24 h; in data set [11] (human, plasma, oral, other subjects here, day 8, read-out: Tmax), 1.5 to 4.5 h; in [11] (human, plasma, po, alisertib oral at RP2D with gemcitabine, cycle 1 day 8, plasma, N 5, read-out: Tmax, Mean (converted)) it was 7.52 h. In addition, the “Inhibition of selected CYPs” value in data set [6] is “not shown appreciable inhibition”. Further, the “Recommended phase 2 dose of alisertib combined with gemcitabine” value in data set [7] is 50 mg. Further, the “RP2D of alisertib in combination with paclitaxel” value in data set [4] (twice daily, schedule similar to the one reported here) was 40 mg. Further, the “Subjects who underwent dose delays/omissions” value in [2] (of 26 subjects) is listed as 18 subjects. Further, in [2] (of 26 subjects), the “Subjects with dose reductions” value is reported as 9 subjects. Besides, in [2] (of 94 cycles delivered), the Cycles modified is given as 27 cycles. The “Rate of SAEs” value in data set [8] (setting [14]) is listed as 43%. For the same molecule, in [8] (setting [14]), the “Treatment-related adverse events: anemia” value is 10%. In addition, the “Treatment-related adverse events: leukopenia” value in data set [8] (setting [14]) is recorded as 21%. Also, the “Treatment-related adverse events: neutropenia” value in [8] (setting [14]) is 43%. Further, the Response rates in [8] (monotherapy, depending on the primary tumor subtype) is 5–20%. Also, the “Selectivity for AKA compared to Aurora Kinase B” value in data set [9] was above 200 fold. The “RP2D of alisertib monotherapy” value in data set [10] is given as 50 mg. For the same molecule, the Cmax is 1750 ng/mL in data set [11] (Subject 22, day 8, unexpectedly high); 700 to 900 ng/mL in [11] (human, plasma, oral, observed here with gemcitabine, similar to previously reported, read-out: Cmax); 973 ng/mL in [11] (human, alisertib oral at RP2D with gemcitabine, cycle 1 day 8, plasma, N 5, read-out: Cmax, Mean). The “Percentage extrapolated AUC0->inf, Mean” value in data set [11] (alisertib oral at RP2D with gemcitabine, cycle 1 day 8, plasma, N 4) was 25.08%. Besides, the AUC(0-inf) in [11] (human, alisertib oral at RP2D with gemcitabine, cycle 1 day 8, plasma, N 4, read-out: AUC0->inf, Mean (converted)) is 16300 ng·h/mL. Moreover, the AUC(0-t) in data set [11] (human, alisertib oral at RP2D with gemcitabine, cycle 1 day 8, plasma, N 5, read-out: AUC0->last, Mean (converted)) was 11800 ng·h/mL.
